Laboratory results taken from patent US12624057B2, “Bisphosphonate quinolone conjugates and uses thereof” (BIOVINC, LLC, priority 2016, dated 2026).
Entries after “also recorded” stand apart in the source; their conditions may differ.

Experiments:
[1] = In vivo tolerability during the rat peri-implant osteomyelitis studies; design: species or system Sprague-Dawley rats; conditions: intraperitoneal
Text: (§1) To determine appropriate dosing concentrations, we calculated approximate initial doses for the conjugate based on previous studies and pharmacokinetic data using similar target and release strategies and also rodents (Houghton, et al., Linking bisphosphonates to the free amino groups in fluoroquinolones: preparation of osteotropic prodrugs for the prevention of osteomyelitis. J Med Chem 2008; 51:6955-69; Morioka, et al., Design, synthesis, and biological evaluation of novel estradiol-bisphosphonate conjugates as bone-specific estrogens. Bioorg Med Chem 2010; 18:1143-8). We expected that increasing doses of 0.1, 1 and 10 mg/kg BP-ciprofloxacin molar equivalents will allow us to determine antimicrobial activity in 2 test animals per group based on sample size estimations and previous experience with the animal model (Freire, et al, Development of animal model for Aggregatibacter actinomycetemcomitans biofilm-mediated oral osteolytic infection: a preliminary study. J Periodontol 2011; 82:778-89). Animals were dosed via intraperitoneal injection under general anesthesia, and all compounds were constituted in sterile physiological injectable saline at appropriate pH. One week after pharmacotherapy, all animals were sacrificed and resection of peri-implant tissues was performed, and tissues were immediately homogenized and processed for quantitative assessment of microbial load. Animals were monitored throughout the study period for local or systemic adverse effects of pharmacotherapy.
To determine appropriate dosing concentrations, approximate initial doses were calculated for the conjugate based on previous studies and pharmacokinetic data using similar target and release strategies also in rodents.^13, 26 Increasing doses of 0.1, 1 and 10 mg/kg molar equivalents of 6 can allow for determination of antimicrobial activity in 2 test animals per group based on sample size estimations and previous experience with the animal model.^32 Animals were dosed via intraperitoneal injection under general anesthesia, and all compounds were constituted in sterile physiological injectable saline at appropriate pH.

[2] = tested on: planktonic S. aureus clinical osteomyelitis strains (MSSA and MRSA); assay: MIC by microdilution against planktonic clinical S. aureus strains; type: cell-based, Staphylococcus aureus; conditions: for antimicrobial activity / MIC against planktonic S. aureus (in words): microdilution, 24 h
Description: (§2) Subsequently, the plate was incubated for 24 h/37° C. in a shaker to obtain optimal conditions for microbial growth and to prevent bacteria from forming biofilms. After incubation, the absorbance was measured once again. The following control samples were established: negative control sample one: sterile medium without microbes; negative control sample two: sterile medium without microbes implemented with DMSO (dimethyl sulfoxide, Sigma-Aldritch) to final concentration of 1% (v/v); positive control sample one: medium+microbes with no compound tested; positive control sample two: medium+microbes with no compound tested but implemented with DMSO to final concentration of 1% (v/v). […] To assess relative number of cells, the following calculations were performed. […] Next, the relative number of cells subjected to incubation with tested compounds were counted as follows: […].
as §2, with “Evaluation of the MIC of tested compounds against planktonic forms of clinical staphylococcal strains analyzed: To assess the impact of parent antibiotic and conjugates on microbial growth, 100 μl of microbial solutions of density 1×10^5 CFU/ml were placed into wells of 96-well test plates together with appropriate concentrations of tested compounds. […] Subsequently,” for “Subsequently,”, “plates were” for “the plate was”, “hrs/37°” for “h/37°”, “Sigma-Aldrich)” for “Sigma-Aldritch)”
The occurrence of opacification or lack of opacification of media was proof of pathogen growth or lack of growth, respectively. Additionally, bacterial solutions were cultured on the appropriate stable medium. Growth or lack of growth of bacterial colonies together with above-mentioned results from liquid cultures served as confirmation of results obtained spectrophotometrically.

[3] = tested on: Aggregatibacter actinomycetemcomitans biofilms on titanium implants; assay: Rat jawbone peri-implant osteomyelitis model, first animal experiment; type: in vivo, Sprague-Dawley rats; conditions: conjugate, 0.3 mg/kg ×3 over a week (0.9 mg/kg total)
[4] = 24 h
Description: Next, solutions were left for 24 h/37° C./shaking. After incubation, absorbance was measured once again. To assess for degradation of conjugate, values of absorbance taken at 0 hr and 24 hrs were compared.

[5] = tested on: Aggregatibacter actinomycetemcomitans biofilms on titanium implants; assay: Rat jawbone peri-implant osteomyelitis model, first animal experiment; type: in vivo, Sprague-Dawley rats; conditions: for activity compared with ciprofloxacin in multiple doses (in words): conjugate 10 mg/kg single dose versus ciprofloxacin 30 mg/kg total; for efficacy (in words): single dose 0.1 and 1 mg/kg
Text: Since this BP-ciprofloxacin conjugate is novel and has not been tested in vivo, we performed an initial safety and efficacy study in an animal model of peri-implant osteomyelitis. This model is a unique in-house jawbone peri-implant osteomyelitis model that was developed specifically for translational value to study biofilm-mediated disease and host response in vivo (Freire, et al, Development of animal model for Aggregatibacter actinomycetemcomitans biofilm-mediated oral osteolytic infection: a preliminary study. J Periodontol 2011; 82:778-89). […] After biofilms are established on the implants in vitro, they are surgically transferred to the jawbone of each rat. Animals are anesthetized, the cheeks are retracted and a transmucosal osteotomy is performed so implants can be manually inserted into the osteotomy and secured. Two biofilm-inoculated implants are placed in each rat (n=12 rats and 24 implants) in the palatal bone bilaterally.
as §1
This animal model is an in-house jawbone peri-implant osteomyelitis model designed specifically to study biofilm-mediated disease and host response in vivo (Freire, et al, Development of animal model for Aggregatibacter actinomycetemcomitans biofilm-mediated oral osteolytic infection: a preliminary study. J Periodontol 2011; 82:778-89). […] After biofilms were established on the implants in vitro, they were surgically transferred to the jawbone of each rat. For surgery, animals were anesthetized with 4% isoflurane inhalant initially followed by intraperitoneal injection of ketamine (80-90 mg/kg) plus xylazine (5-10 mg/kg). Then local anesthesia was given via infiltration injection of bupivicaine 0.25% at the surgical site. Buprenorphine sustained release (1.0-1.2 mg/kg) was then given subcutaneously as preemptive analgesia before making initial incisions. Once anesthetized, the buccal mucosa of each rat was retracted and a transmucosal osteotomy was performed with a pilot drill into the alveolar ridge in the natural diastema of the anterior palate. Implants were then manually inserted into the osteotomy and secured into the bone until the platform is at mucosal level.

[6] = conjugate, single dose 10 mg/kg intraperitoneal
[7] = ciprofloxacin, 10 mg/kg 3×/week (30 mg/kg total)

**Q.** With O=C(O)c1cn(C2CC2)c2cc(N3CCN(C(=O)Oc4ccc(CC(P(=O)(O)O)P(=O)(O)O)cc4)CC3)c(F)cc2c1=O [Compound 6, 1-cyclopropyl-7-(4-((4-(2,2-diphosphonoethyl)phenoxy)carbonyl)piperazin-1-yl)-6-fluoro-4-oxo-1,4-dihydroquinoline-3-carboxylic acid] as the compound, how does the “tolerability / adverse events” value ([1]; first animal experiment, listed as BCC) read?
**A.** no potential systemic toxicity or adverse effects

**Q.** And the “tolerability / adverse events” value ([1]; first animal experiment, listed as BP-ciprofloxacin)?
**A.** safety and efficacy was demonstrated in vivo

**Q.** What about the “tolerability / adverse events” value ([1]; second animal experiment) of the same compound?
**A.** no signs of gross tolerability issues during therapy

**Q.** What about the “tolerability / adverse events” value ([1]; second animal experiment, listed as BCC) of the same compound?
**A.** tolerated treatment and pharmacotherapy well with no adverse events

**Q.** What about the “MIC compared with mean bactericidal concentration (MBC)” value ([2]; AST data) of the same compound?
**A.** equivalent to their mean bactericidal concentrations

**Q.** And the “antimicrobial activity / MIC against planktonic S. aureus (in words)” value (from here on “antimicrobial activity / MIC”) [2]?
**A.** effective bactericidal activity

**Q.** And the “antimicrobial activity / MIC” value ([2]; listed as BCC)?
**A.** retains significant bactericidal activity

**Q.** What about the “antimicrobial activity / MIC” value ([2]; listed as BP-ciprofloxacin) of the same compound?
**A.** slightly greater concentrations of conjugate required to reach MIC than ciprofloxacin alone

**Q.** And the bacterial killing [3]?
**A.** 100%

**Q.** And the “recovery of bacteria (in words)” value [3]?
**A.** no recoverable bacteria

**Q.** What about the “recovery of bacteria (in words)” value ([3]; listed as BP-ciprofloxacin) of the same compound?
**A.** no recovery of Aa; also recorded: no recoverable bacteria

**Q.** And the “stability in trypticase soy broth microbiological media” value [4]?
**A.** no degradation is observed after 24 hrs

**Q.** And the “greater bactericidal activity than multiple dosing of ciprofloxacin” value ([5]; conjugate 10 mg/kg single dose)?
**A.** ~1 log

**Q.** What about the “activity compared with ciprofloxacin in multiple doses (in words)” value (“activity compared with ciprofloxacin” for short) [5] of the same compound?
**A.** nearly an order of magnitude greater activity than ciprofloxacin alone

**Q.** What about the “activity compared with ciprofloxacin” value ([5]; listed as BCC) of the same compound?
**A.** an order of magnitude greater activity than the parent antibiotic ciprofloxacin alone; also recorded: approximately as effective as ciprofloxacin given at 30 mg/kg total dose

**Q.** What about the “activity compared with ciprofloxacin” value ([5]; listed as BP-ciprofloxacin) of the same compound?
**A.** more than an order of magnitude greater activity than ciprofloxacin alone; also recorded: superior to multiple dosing of the parent antibiotic ciprofloxacin

**Q.** And the “bacterial killing / bactericidal activity” value [5, 6]?
**A.** 99%

**Q.** What about the “reduction of bacterial load versus negative control” value [5, 6] of the same compound?
**A.** 2 log

**Q.** What about the “efficacy (in words)” value ([5]; conjugate) of the same compound?
**A.** little effect; also recorded: no efficacy; also recorded: ineffective

**Q.** And the “efficacy (in words)” value ([5]; conjugate, listed as BP-ciprofloxacin)?
**A.** little effect; also recorded: not efficacious

**Q.** For O=C(O)c1cn(C2CC2)c2cc(N3CCNCC3)c(F)cc2c1=O [ciprofloxacin, reference compound], which bacterial killing [5, 7] is on record?
**A.** 90%

**Q.** And the “reduction of bacterial load” value [5, 7]?
**A.** 1 log
